The values that follow come from USRE37556E1, “Superoxide radical inhibitor” (Otsuka Pharmaceutical Co., Ltd., priority 1990, dated 2002).

Structures can show the parent of a compound that is named as a salt.

The melting point is the temperature, or range, at which the solid turns liquid. The term IC50 denotes the concentration that gives 50% inhibition. Low readings indicate greater potency, high ones weaker potency.

Series [1] relates to human neutrophilic leukocytes. The experiment in a line: Inhibition of superoxide radical (O2-) generation in FMLP-stimulated human neutrophilic leukocytes (ferricytochrome C method). The series is classed as cell-based. To be noted: Homo sapiens, Leukocyte. The text has this: (1) Activity for inhibiting the generation of superoxide radical (O2^−) in human neutrophilic leukocytes
That is, a whole blood obtained from a healthy adult and treated by anticoagulation method was subjected to a dextranhypotonic treatment to obtain leukocyte cells. The leukocyte cells were then subjected to a density gradient ultracentrifugation by Ficoll-Paque to obtain a neutrophilic leukocyte fraction.
O2^− generation was examined by the ferricytochrome C method in accordance with the method of B. N. Cronstein et al. [Journal of Experimental Medicine, vol. […] Each test compound was dissolved in dimethyl sulfoxide (DMSO); the solution was added to neutrophilic leukocytes before the addition of FMLP; then, the neutrophilic leukocytes were pre-incubated at 37° C.

Where [2] appears, read: pH 7.4, Table 15, O2- generation, 3x10^-7 M FMLP, cytochalasin B, 37° C., pH 7.4.

As to `CCOc1ccc(-c2nc(-c3cccc(CN(C)C)n3)cs2)cc1OCC.Cl.Cl`, the melting point is 195 °C (dec.).
In turn, `CCOc1ccc(-c2nc(-c3ccc(S)cc3C(=O)O)cs2)cc1OCC` [Example 355, 2-(3,4-diethoxyphenyl)-4-(4-mercapto-2-carboxyphenyl)-thiazole] yielded a melting point of 283 to 285 °C.
Regarding `CCOc1ccc(-c2nc(-c3cc4c(c(C(=O)O)c3)OC(C)(C)C4)cs2)cc1OCC` [Example 465, 2-(3,4-diethoxyphenyl)-4-(2,2-dimethyl-7-carboxy-2,3-dihydrobenzofuran-5-yl)thiazole], the melting point is 106 to 107 °C.
`CCOc1ccc(-c2nc(C=Cc3ccccc3)cs2)cc1OCC` [Example 247, 2-(3,4-diethoxyphenyl)-4-styrylthiazole] had a melting point of 94 to 95 °C.
Compound `CCCCCCCCCOC(=O)c1cc(-c2csc(-c3ccc(OCC)c(OCC)c3)n2)ccc1O` [Example 461, 2-(3,4-diethoxyphenyl)-4-(3-nonyloxycarbonyl-4-hydroxyphenyl)thiazole] returned a melting point of 67 to 68 °C.
For `CCOc1ccc(-c2nc(-c3cc(C=CC(=O)O)c(O)c(C(=O)O)c3)cs2)cc1OCC` [Example 514, 2-(3,4-diethoxyphenyl)-4-[3-carboxy-4-hydroxy-5-(2-carboxyvinyl)phenyl] thiazole], the melting point lay in the range of 260 to 261 °C.
`CCOc1ccc(-c2nc(-c3ccc(OC(C)=O)c(C(=O)O)c3)cs2)cc1OCC` [Example 364, 2-(3,4-diethoxyphenyl)-4-(3-carboxy-4-acetyloxyphenyl)thiazole] returned a melting point of 178 to 179 °C.
In turn, `COc1ccc(-c2nc(-c3cc(N)cc(N)c3)cs2)cc1OC.Cl.Cl` came in with a melting point of 198 to 200 °C.
The compound `CCOc1ccc(C(=O)c2csc(-c3ccc(OCC)c(OCC)c3)n2)cc1OCC` [Example 246, 2-(3,4-diethoxyphenyl)-4-(3,4-diethoxybenzoyl)thiazole] gave a melting point of 128 to 129 °C.
Compound `COc1ccc(-c2nc(-c3ccc4oc(=O)[nH]c4c3)cs2)cc1OC` [Example 145, 2-(3,4-dimethoxyphenyl)-4-(benzoxazol-2-on-5-yl) thiazole] returned a melting point of 271 to 272 °C.
With `CCOc1ccc(-c2nc(C3=CCN(C)CC3)cs2)cc1OCC`, the melting point lay in the range of 81.2 to 83.6 °C.
For `CCOc1ccc(-c2nc(-c3ccc(O)c(CC)c3)c(CN(C)C)s2)cc1OCC.Cl.Cl`, the melting point lay within 163 to 168 °C.
As for `COc1ccc(C(O)c2nc(-c3ccc4[nH]c(=O)c(O)c(O)c4c3)cs2)cc1OC` (stereo not drawn) [Example 151, 2-[1-(3,4-dimethoxyphenyl)-1-hydroxymethyl]-4-(3,4-dihydroxycarbostyril-6-yl)thiazole], the melting point was in the range of 188 to 189 °C.
Same read-out and setting: the same measure for `O=c1[nH]cccc1-c1nc(-c2ccccc2)cs1` [Example 140, 2-(2-oxopyridin-3-yl)4-phenylthiazole]: 206 to 207 °C (dec.).
The compound `CCOc1ccc(-c2nc(-c3cc(CCO)c(O)c(C(=O)OC)c3)cs2)cc1OCC` [Example 358, 2-(3,4-diethoxyphenyl)-4-[3-methoxycarbonyl-4-hydroxy-5-(2-hydroxyethyl)phenyl]-thiazole] showed a melting point of 113 to 114 °C.
In the case of `CCOc1ccc(-c2nc(-c3ccc(NCCN4CCCCC4)c(C(=O)OC)c3)cs2)cc1OCC` [compound 117, 2-(3,4-Diethoxyphenyl)-4-{3-methoxycarbonyl-4-[2-(1-piperidinyl)ethylamino]phenyl}thiazole dihydrochloride], half-maximal inhibition in series [1] (setting [2]) (IC50) was put at 460 nM.
For the compound `CCOc1ccc(-c2nc(-c3cc(C(=O)O)ccc3OC)cs2)cc1OCC` [compound 112, 4-(3-Carboxy-6-methoxyphenyl)-2-(3,4-diethoxyphenyl)thiazole, reference compound], half-maximal inhibition in series [1] (Table 16, comparative test present compounds vs prior art compounds, NE = not effective) (IC50) required 8700 nM.
Regarding `CCOc1ccc(-c2nc(-c3cc(C(=O)O)cc(N)c3O)cs2)cc1OCC` [compound 113, 4-(2-Hydroxy-3-amino-5-carboxyphenyl)-2-(3,4-diethoxy-phenyl)thiazole hydrochloride], the IC50 in series [1] (setting [2]) was 25 nM.
